Data as given in patent US10022376B2 (Pfizer Inc., priority 2014, dated 2018).

Test system: rhIFNγ stimulated STAT-3 phosphorylation in the A549 human epithelial cell line
Test: A549 Cell Assay: Inhibition of pSTAT3
Type: cell-based
Conditions: Homo sapiens; A549 cells
Procedure: A549 Cell Assay: Inhibition of pSTAT3
An assay measuring the efficacy of JAK inhibitors on the functional response of recombinant human interferon γ (rhIFNγ) stimulated STAT-3 phosphorylation in the A549 human epithelial cell line.
A549 cells (ATCC #CCL-185), were plated at 30,000 cells/well in 96 well flat bottomed tissue culture plates (BD#353072) in 200 μL of growth medium (DMEM, Pfizer media prep, with 10% Fetal Bovine Serum, Sigma #F4135, 2 mM L-Glutamine, Pfizer media prep, 100 U/mL penicillin, Pfizer media prep, and 200 μg/ml streptomycin, Pfizer media prep), and cultured at 37° C., 5% CO2 incubator for 18 hours. Growth medium was removed by vacuum aspiration (V&P Scientific #vp187 bp-60), and 90 μL of pre-warmed assay medium (DMEM with 0.2% BSA, Miltenyi #130-091-376) was added to each well and incubated for 15 minutes at 37° C. 10 μL of vehicle control or test compound (final concentration range of 0.3 nM to 10 μM with 0.1% DMSO) was added to the cells. Plates were incubated at 37° C. for 1 hour. After compound incubation, 10 μL of 220 ng/mL recombinant human IFNγ (R&D Systems #285-IF, final rhIFNγ concentration of 20 ng/mL) was added to the cells and plates were incubated for 30 minutes at 37° C. Wells containing A549 cells, medium with 0.1% DMSO and no rhIFNγ were used as background controls. After rhIFNγ stimulation, media was aspirated from each well and 35 μL/well of iced-cold MSD lysis buffer containing protease and phosphatase inhibitors from Phospho-STAT3 Tyr705 assay kit (Meso-Scale Discovery #K150DID) was added to each well. Plates were incubated at 4° C. with shaking for 30 minutes. Cell lysates were assayed following the MSD Phospho-STAT3 Tyr705 assay kit protocol to detect pSTAT3.
Data were collected and transformed into percent inhibition and calculated using the following formula: […]

Compound	IC50
CCN(c1ccccc1CNc1nc(-c2cc(F)c(O)cc2CC(F)(F)F)cc2[nH]nc(C(=O)NC)c12)S(=O)(=O)CC [Example 1, 4-({2-[Ethyl(ethylsulfonyl)amino]benzyl}amino)-6-[5-fluoro-4-hydroxy-2-(2,2,2-trifluoroethyl)phenyl]-N-methyl-1H-pyrazolo[4,3-c]pyridine-3-carboxamide]	67.4 nM
CCc1cc(O)c(F)cc1-c1cc2[nH]nc(C(=O)NC)c2c(NCc2ccccc2N(CC)S(=O)(=O)CC)n1 [Example 2, 4-({2-[ethyl(ethylsulfonyl)amino]benzyl}amino)-6-(2-ethyl-5-fluoro-4-hydroxyphenyl)-N-methyl-1H-pyrazolo[4,3-c]pyridine-3-carboxamide]	46.8 nM
CCc1cc(O)c(F)cc1-c1cc2[nH]nc(C(=O)NC)c2c(NCc2ccccc2N(C)S(=O)(=O)CC)n1 [Example 3, 6-(2-ethyl-5-fluoro-4-hydroxyphenyl)-4-({2-[(ethylsulfonyl)(methyl)amino]benzyl}amino)-N-methyl-1H-pyrazolo[4,3-c]pyridine-3-carboxamide]	16.2 nM
CCc1cc(O)c(F)cc1-c1cc2[nH]nc(C(=O)NC)c2c(NCCc2ccc(O)cc2)n1 [Example 4, 6-(2-ethyl-5-fluoro-4-hydroxyphenyl)-4-{[2-(4-hydroxyphenyl)ethyl]amino}-N-methyl-1H-pyrazolo[4,3-c]pyridine-3-carboxamide]	29.7 nM
CCc1cc(O)c(F)cc1-c1cc2[nH]nc(C(=O)NC)c2c(NCC(C)C)n1 [Example 5, 6-(2-ethyl-5-fluoro-4-hydroxyphenyl)-N-methyl-4-[(2-methylpropyl)amino]-1H-pyrazolo[4,3-c]pyridine-3-carboxamide]	1.7 nM
CCc1cc(O)c(F)cc1-c1cc2[nH]nc(C(=O)NC)c2c(NCc2cc(Cl)ccc2N(C)S(C)(=O)=O)n1 [Example 6, 4-({5-chloro-2-[methyl(methylsulfonyl)amino]benzyl}amino)-6-(2-ethyl-5-fluoro-4-hydroxyphenyl)-N-methyl-1H-pyrazolo[4,3-c]pyridine-3-carboxamide]	23.4 nM
CCc1cc(O)c(F)cc1-c1cc2[nH]nc(C(=O)NC)c2c(NCc2cc(F)ccc2N(C)S(C)(=O)=O)n1 [Example 7, 6-(2-ethyl-5-fluoro-4-hydroxyphenyl)-4-({5-fluoro-2-[methyl(methylsulfonyl)amino]benzyl}amino)-N-methyl-1H-pyrazolo[4,3-c]pyridine-3-carboxamide]	5.7 nM
CCc1cc(O)c(F)cc1-c1cc2[nH]nc(C(=O)NC)c2c(NCc2c(F)cccc2N(C)S(C)(=O)=O)n1 [Example 8, 6-(2-ethyl-5-fluoro-4-hydroxyphenyl)-4-({2-fluoro-6-[methyl(methylsulfonyl)amino]benzyl}amino)-N-methyl-1H-pyrazolo[4,3-c]pyridine-3-carboxamide]	6.4 nM
CNC(=O)c1n[nH]c2cc(-c3cc(F)c(O)cc3CC(F)(F)F)nc(NCc3cc(C)ccc3N(C)S(C)(=O)=O)c12 [Example 11, 6-[5-fluoro-4-hydroxy-2-(2,2,2-trifluoroethyl)phenyl]-N-methyl-4-({5-methyl-2-[methyl(methylsulfonyl)amino]benzyl}amino)-1H-pyrazolo[4,3-c]pyridine-3-carboxamide]	72.4 nM
CNC(=O)c1n[nH]c2cc(-c3cc(F)c(O)cc3CC(F)(F)F)nc(NCc3cc(Cl)ccc3N(C)S(C)(=O)=O)c12 [Example 15, 4-({5-chloro-2-[methyl(methylsulfonyl)amino]benzyl}amino)-6-[5-fluoro-4-hydroxy-2-(2,2,2-trifluoroethyl)phenyl]-N-methyl-1H-pyrazolo[4,3-c]pyridine-3-carboxamide]	92.4 nM
CNC(=O)c1n[nH]c2cc(-c3cc(F)c(O)cc3CC(F)(F)F)nc(NCC(C)C)c12 [Example 16, 6-[5-fluoro-4-hydroxy-2-(2,2,2-trifluoroethyl)phenyl]-N-methyl-4-[(2-methylpropyl)amino]-1H-pyrazolo[4,3-c]pyridine-3-carboxamide]	65.1 nM
CNC(=O)c1n[nH]c2cc(-c3cc(F)c(O)cc3CC(F)(F)F)nc(NCC3CCCC3)c12 [Example 17, 4-[(cyclopentylmethyl)amino]-6-[5-fluoro-4-hydroxy-2-(2,2,2-trifluoroethyl)phenyl]-N-methyl-1H-pyrazolo[4,3-c]pyridine-3-carboxamide]	174 nM
CS(=O)(=O)N(CCO)c1ccccc1CNc1nc(-c2cc(F)c(O)cc2CC(F)(F)F)cc2[nH]nc(C(N)=O)c12 [Example 27, 6-[5-fluoro-4-hydroxy-2-(2,2,2-trifluoroethyl)phenyl]-4-({2-[(2-hydroxyethyl)(methylsulfonyl)amino]benzyl}amino)-1H-pyrazolo[4,3-c]pyridine-3-carboxamide]	874 nM
CCc1cc(O)c(F)cc1-c1cc2[nH]nc(C(=O)NC)c2c(NCc2ccc(O)cc2N(C)S(C)(=O)=O)n1 [Example 29, 6-(2-Ethyl-5-fluoro-4-hydroxyphenyl)-4-({4-hydroxy-2-[methyl (methylsulfonyl)amino]benzyl}amino)-N-methyl-1H-pyrazolo[4,3-c]pyridine-3-carboxamide]	86.9 nM
CCc1cc(O)c(F)cc1-c1cc2[nH]nc(C(N)=O)c2c(NCc2ccc(O)cc2N(C)S(C)(=O)=O)n1 [Example 30, 6-(2-Ethyl-5-fluoro-4-hydroxyphenyl)-4-({4-hydroxy-2-[methyl(methylsulfonyl)amino]benzyl}amino)-1H-pyrazolo[4,3-c]pyridine-3-carboxamide]	164 nM
CNC(=O)c1n[nH]c2cc(-c3cc(F)c(O)cc3CC(F)(F)F)nc(NCc3ccccc3N(C)S(=O)(=O)c3cccc(O)c3)c12 [Example 32, 6-[5-Fluoro-4-hydroxy-2-(2,2,2-trifluoroethyl)phenyl]-4-[(2-{[(3-hydroxyphenyl)sulfonyl](methyl)amino}benzyl)amino]-N-methyl-1H-pyrazolo[4,3-c]pyridine-3-carboxamide]	628 nM
CCN(c1ccc(O)cc1CNc1nc(-c2cc(F)c(O)cc2CC(F)(F)F)cc2[nH]nc(C(=O)NC)c12)S(C)(=O)=O [Example 34, 4-({2-[ethyl(methylsulfonyl)amino]-5-hydroxybenzyl}amino)-6-[5-fluoro-4-hydroxy-2-(2,2,2-trifluoroethyl)phenyl]-N-methyl-1H-pyrazolo[4,3-c]pyridine-3-carboxamide]	301 nM
CCN(c1ccc(O)cc1CNc1nc(-c2cc(F)c(O)cc2CC(F)(F)F)cc2[nH]nc(C(=O)NC)c12)S(=O)(=O)c1ccccc1 [Example 36, 4-({2-[ethyl(phenylsulfonyl)amino]-5-hydroxybenzyl}amino)-6-[5-fluoro-4-hydroxy-2-(2,2,2-trifluoroethyl)phenyl]-N-methyl-1H-pyrazolo[4,3-c]pyridine-3-carboxamide]	433 nM
CNC(=O)c1n[nH]c2cc(-c3cc(F)c(O)cc3C3CC3)nc(NCc3ccccc3N(C)S(C)(=O)=O)c12 [Example 37, 6-(2-cyclopropyl-5-fluoro-4-hydroxyphenyl)-N-methyl-4-({2-[methyl(methylsulfonyl)amino]benzyl}amino)-1H-pyrazolo[4,3-c]pyridine-3-carboxamide]	47.4 nM
CCc1cc(O)c(F)cc1-c1cc2[nH]nc(C(=O)NC)c2c(N[C@H](C)c2ccccc2N(C)S(C)(=O)=O)n1 [Example 38, 6-(2-Ethyl-5-fluoro-4-hydroxyphenyl)-N-methyl-4-{[(1R)-1-{2-[methyl(methylsulfonyl)amino]phenyl}ethyl]amino}-1H-pyrazolo[4,3-c]pyridine-3-carboxamide]	30.8 nM
CCc1cc(O)c(F)cc1-c1cc2[nH]nc(C(=O)NC)c2c(N[C@@H](C)c2ccccc2N(C)S(C)(=O)=O)n1 [Example 39, 6-(2-Ethyl-5-fluoro-4-hydroxyphenyl)-N-methyl-4-{[(1S)-1-{2-[methyl(methylsulfonyl)amino]phenyl}ethyl]amino}-1H-pyrazolo[4,3-c]pyridine-3-carboxamide]	60.9 nM
CCc1cc(O)c(F)cc1-c1cc2[nH]nc(C(N)=O)c2c(NCc2ccccc2N(C)S(=O)(=O)c2ccccc2)n1 [Example 40, 6-(2-Ethyl-5-fluoro-4-hydroxyphenyl)-4-({2-[methyl(phenylsulfonyl)amino]benzyl}amino)-1H-pyrazolo[4,3-c]pyridine-3-carboxamide]	50 nM
CN(c1ccc(O)cc1CNc1nc(-c2cc(F)c(O)cc2CC(F)(F)F)cc2[nH]nc(C(N)=O)c12)S(=O)(=O)c1ccccc1 [Example 42, 6-[5-fluoro-4-hydroxy-2-(2,2,2-trifluoroethyl)phenyl]-4-({5-hydroxy-2-[methyl(phenylsulfonyl)amino]benzyl}amino)-1H-pyrazolo[4,3-c]pyridine-3-carboxamide]	645 nM
CCN(c1ccc(O)cc1CNc1nc(-c2cc(F)c(O)cc2CC(F)(F)F)cc2[nH]nc(C(N)=O)c12)S(=O)(=O)c1ccccc1 [Example 43, 4-({2-[ethyl(phenylsulfonyl)amino]-5-hydroxybenzyl}amino)-6-[5-fluoro-4-hydroxy-2-(2,2,2-trifluoroethyl)phenyl]-1H-pyrazolo[4,3-c]pyridine-3-carboxamide]	764 nM
